Measurements: patent publication US20240199676A1, “ANTIVIRAL COMPOUNDS AND METHODS OF MAKING AND USING THE SAME” (Gilead Sciences, Inc., priority 2022, published 2024)
pEC50: −log10 of the molar value.

Legend:
[1] = test system: Respiratory syncytial virus recombinant with luciferase (RSV-Luc5) in HEp-2 cells; experiment: HEp-2 RSV-Luc5 384-well Assay (EC50 RSVFLUC Hep2-384 v2, Ex. V); format: cell-based; settings: human respiratory syncytial virus, HEp-2, 72 h, read-out: EC50 RSV FLuc Hep-2 384 V2 (per Ex. V)
Excerpt: Example V: HEp-2 RSV-Luc5 384-well Assay (EC50 RSVFLUC Hep2-384 v2)
HEp-2 cell line was purchased from ATCC (Manassas, VA Cat #CCL-23) and maintained in Dulbecco's […] (DMEM) (Corning, New York, NY, Cat #15-018CM) supplemented with 10% fetal bovine serum (FBS) (Hyclone, Logan, UT, Cat #SH30071-03) and 1× Penicillin-Streptonycin-L-Glutamine (Corning, New York, NY, Cat #30-009-CI). Cells were passaged 2 times per week to maintain sub-confluent densities and were used for experiments at passage 5-20. Respiratory syncytial virus recombinant with luciferase (RSV-Luc5) (≥1 ×107 TCID50/ml) was purchased from Microbiologics (Saint Cloud, MN). Viral replication was determined in HEp-2 cells in the following manner.
Compounds are prepared in 100% DMSO in 384-well polypropylene plates (Greiner, Monroe, NC, Cat #784201) with 8 compounds per plate in grouped replicates of 4 at 10 serially diluted concentrations (1:3). The serially diluted compounds were transferred to low dead volume Echo plates (Labcyte, Sunnyvale, CA, Cat #LP-0200).
The test compounds were spotted to 384-well assay plates (Greiner, Monroe, NC, Cat#781091) at 200 nL per well. HEp-2 cells were harvested and suspended in DMEM (supplemented with 10% FBS and 1× Penicillin-Streptonycin-L-Glutamine) and seeded to the pre-spotted assay plates at 4,000 cells per well in 30 μL. RSV-Luc5 viruses were diluted in DMEM (supplemented with 10% FBS and 1× Penicillin-Streptomycin-L-Glutamine) at 200,000 Infectious Units (IU) per mL and 10 μL per well was added to the assay plates containing cells and compounds, for an MOI=0.5. The assay plates were incubated for 3 days at 37° C. and 5% CO2. At the end of incubation, One-Glo reagent (Promega, Madison, WI, Cat #E6120) was prepared. The assay plates and One-Glo reagent were equilibrated to room temperature for at least 15 minutes. 40 μL per well of One-Glo reagent was added and the plates were incubated at room temp for 15 minutes before reading the luminescence signal on an EnVision multimode plate reader (Perkin Elmer, Waltham, MA). Remdesivir was used as positive control and DMSO was used as negative control. Values were normalized to the positive and negative controls (as 0% and 100% replication, respectively) and data was fitted using non-linear regression analysis by Gilead's dose response tool. The EC50 value for each compound was then determined as the concentration reducing the viral replication by 50%.

[2] = GI S9 stability (Ex. Z), cyno intestinal S9; format: in vitro ADME; settings: cynomolgus monkey, pooled intestinal S9 fractions; cyno intestinal S9, 1.0 mg/mL protein, 2 μM substrate, pH 7.4; read-out: GIS9 Cyno T½ (per Ex. Z)
Method: (§1) Example Z: GI S9 stability data:
(§2) Stock solutions of test compounds in dimethyl sulfoxide (DMSO) having a final concentration of 10 mM were prepared and used in all experiments. Sekisui XenoTech (Kansas City, KS) provided pooled intestinal S9 fractions. All other chemicals were purchased from Sigma-Aldrich (St. Louis, MO) or VWR (West Chester, PA). Internal Standard/Quench (IS/Q) used to stop reactions was 100 nM labetalol in (by volume) methanol (10%) and acetonitrile (90%).
(§3) Stability in Intestinal S9 Fractions: Duplicate aliquots of test compound or positive control substrate were added to S9 stock diluted with phosphate buffered saline (137 mM NaCl, 2.7 mM KCl, 10 mM phosphate buffer), pH 7.4, to obtain a protein concentration of 1.0 mg/mL. The metabolic reactions were initiated by the addition of the substrates to the S9 reaction mixture to a final concentration of 2 μM. At 0, 10, 20, 30, 60 and 120 min, 25 μL aliquots of the reaction mixture were transferred to plates containing 225 μl of IS/Q solution. After quenching, the plates were centrifuged at 3000×g for 30 minutes. 150 μL aliquots of each supernatant were dried down then reconstituted with 300 μL water. Aliquots (10 μL) of the prepared samples were analyzed on a Thermo Q-Exactive mass spectrometer as described below.
(§4) Liquid Chromatography—Mass Spectrometry: Quantification of test compounds and control substrate was performed by analyte/internal standard peak area ratio (PAR) values measured on a Thermo Q-Exactive mass spectrometer coupled to a Dionex UltiMate 3000 HPLC with a Leap Technologies HTC PAL autosampler. The column used for analysis was a Waters Acquity BEH C18 (1.7 μm particle size, 2.1×50 mm). Mobile phase A consisted of 0.1% (v/v) formic acid in water. Mobile phase B consisted of 0.1% (v/v) formic acid in acetonitrile. Elution of analytes was achieved by a series of linear gradients varying the proportions of A and B. The mass spectrometer was calibrated on a weekly basis and mass tolerance of 5 ppm was used.
(§5) Metabolic stabilities in S9 fractions were determined by measuring the rates of disappearance of test compound and positive control substrate.
(§6) Data (% of substrate remaining) were plotted on a semi-log scale and fitted using an exponential decline model:
(§7) Where Ct—% of substrate remaining at time=t; C0—% of substrate remaining at time=0; t—time; T½—half-life The Half-life (T½) is determined by the following equation: […]
(§8) Assuming a first-order reaction, the slope (k) is extrapolated from the aforementioned plotted data.

[3] = GI S9 stability (Ex. Z), rat intestinal S9; format: in vitro ADME; settings: pooled intestinal S9 fractions; rat intestinal S9, 1.0 mg/mL protein, 2 μM substrate, pH 7.4; read-out: GIS9 Rat T½ (per Ex. Z)
Method: as §1, §2, §3, §4, §5, §6, §7, §8

[4] = GI S9 stability (Ex. Z), dog intestinal S9; format: in vitro ADME; settings: pooled intestinal S9 fractions; dog intestinal S9, 1.0 mg/mL protein, 2 μM substrate, pH 7.4; read-out: GIS9 DOG T½ (per Ex. Z)
Method: as §1, §2, §3, §4, §5, §6, §7, §8

| SMILES | pEC50 [1] | half-life at 2 μM [2] | half-life at 2 μM [3] | half-life at 2 μM [4] |
| --- | --- | --- | --- | --- |
| N#C[C@]1(COC(=O)C2CCC2)O[C@@H](c2ccc3c(N)ncnn23)[C@H](O)[C@@H]1O [Compound 8, ((2R,3S,4R,5S)-5-(4-aminopyrrolo[2,1-f][1,2,4]triazin-7-yl)-2-cyano-3,4-dihydroxytetrahydrofuran-2-yl)methyl cyclobutanecarboxylate] | 4.83 | 4 min | 2 min | 10 min |
| N#C[C@]1(COC(=O)C2CCCCC2)O[C@@H](c2ccc3c(N)ncnn23)[C@H](O)[C@@H]1O [Compound 19, ((2R,3S,4R,5S)-5-(4-aminopyrrolo[2,1-f][1,2,4]triazin-7-yl)-2-cyano-3,4-dihydroxytetrahydrofuran-2-yl)methyl cyclohexanecarboxylate] | 4.74 | 2 min | 4 min | 48 min |
| CCC(CC)C(=O)OC[C@@]1(C#N)O[C@@H](c2ccc3c(N)ncnn23)[C@H](O)[C@@H]1O [Compound 9, ((2R,3S,4R,5S)-5-(4-aminopyrrolo[2,1-f][1,2,4]triazin-7-yl)-2-cyano-3,4-dihydroxytetrahydrofuran-2-yl)methyl 2-ethylbutanoate] | 4.54 | 57 min | 23 min | 510 min |
| CCC(=O)OC[C@@]1(C#N)O[C@@H](c2ccc3c(N)ncnn23)[C@H](O)[C@@H]1O [Compound 5, ((2R,3S,4R,5S)-5-(4-aminopyrrolo[2,1-f][1,2,4]triazin-7-yl)-2-cyano-3,4-dihydroxytetrahydrofuran-2-yl)methyl propionate] | 4.70 | 6 min | 10 min | 114 min |
| Cc1ccc(C(=O)OC[C@@]2(C#N)O[C@@H](c3ccc4c(N)ncnn34)[C@H](O)[C@@H]2O)cc1 [Compound 14, ((2R,3S,4R,5S)-5-(4-aminopyrrolo[2,1-f][1,2,4]triazin-7-yl)-2-cyano-3,4-dihydroxytetrahydrofuran-2-yl)methyl 4-methylbenzoate] | 4.66 | 22 min | 6 min | 426 min |
| CC(C)[C@H](N)C(=O)OC[C@@]1(C#N)O[C@@H](c2ccc3c(N)ncnn23)[C@H](O)[C@@H]1O [Compound 12, ((2R,3S,4R,5S)-5-(4-aminopyrrolo[2,1-f][1,2,4]triazin-7-yl)-2-cyano-3,4-dihydroxytetrahydrofuran-2-yl)methyl L-valinate] | 4.72 | 2 min | 9 min | 5 min |
| CC(C)(C)CC(=O)OC[C@@]1(C#N)O[C@@H](c2ccc3c(N)ncnn23)[C@H](O)[C@@H]1O [Compound 13, ((2R,3S,4R,5S)-5-(4-aminopyrrolo[2,1-f][1,2,4]triazin-7-yl)-2-cyano-3,4-dihydroxytetrahydrofuran-2-yl)methyl 3,3-dimethylbutanoate] | 4.30 | 408 min | 185 min | 755 min |
| CCCC(=O)OC[C@@]1(C#N)O[C@@H](c2ccc3c(N)ncnn23)[C@H](O)[C@@H]1O [Compound 6, ((2R,3S,4R,5S)-5-(4-aminopyrrolo[2,1-f][1,2,4]triazin-7-yl)-2-cyano-3,4-dihydroxytetrahydrofuran-2-yl)methyl butyrate] | 4.77 | 8 min | 4 min | 38 min |
| CC(C)(C)C(=O)OC[C@@]1(C#N)O[C@@H](c2ccc3c(N)ncnn23)[C@H](O)[C@@H]1O [Compound 10, ((2R,3S,4R,5S)-5-(4-aminopyrrolo[2,1-f][1,2,4]triazin-7-yl)-2-cyano-3,4-dihydroxytetrahydrofuran-2-yl)methyl pivalate] | 4.66 | 123 min | 53 min | 269 min |
| N#C[C@]1(COC(=O)c2ccccc2)O[C@@H](c2ccc3c(N)ncnn23)[C@H](O)[C@@H]1O [Compound 2, ((2R,3S,4R,5S)-5-(4-aminopyrrolo[2,1-f][1,2,4]triazin-7-yl)-2-cyano-3,4-dihydroxytetrahydrofuran-2-yl)methyl benzoate] | 4.43 | 32 min | 8 min | 789 min |
| N#C[C@]1(COC(=O)C2CC2)O[C@@H](c2ccc3c(N)ncnn23)[C@H](O)[C@@H]1O [Compound 7, ((2R,3S,4R,5S)-5-(4-aminopyrrolo[2,1-f][1,2,4]triazin-7-yl)-2-cyano-3,4-dihydroxytetrahydrofuran-2-yl)methyl cyclopropanecarboxylate] | 4.30 | 100 min | 26 min | 633 min |
| CC(C)C(=O)OC[C@@]1(C#N)O[C@@H](c2ccc3c(N)ncnn23)[C@H](O)[C@@H]1O [Compound 1, ((2R,3S,4R,5S)-5-(4-aminopyrrolo[2,1-f][1,2,4]triazin-7-yl)-2-cyano-3,4-dihydroxytetrahydrofuran-2-yl)methyl isobutyrate] | 4.82 | 25 min | 11 min | 121 min |
| CC(C)C(=O)OC[C@@]1(C#N)O[C@@H](c2ccc3c(N)ncnn23)[C@H](OC(=O)C(C)C)[C@@H]1OC(=O)C(C)C [Compound 20, (2R,3S,4S,5S)-5-(4-aminopyrrolo[2,1-f][1,2,4]triazin-7-yl)-2-cyano-2-((isobutyryloxy)methyl)tetrahydrofuran-3,4-diyl bis(2-methylpropanoate)] | 4.52 |  | 2 min | 3 min |
| CC1(C)CC(C(=O)OC[C@@]2(C#N)O[C@@H](c3ccc4c(N)ncnn34)[C@H](O)[C@@H]2O)C1 [Compound 17, ((2R,3S,4R,5S)-5-(4-aminopyrrolo[2,1-f][1,2,4]triazin-7-yl)-2-cyano-3,4-dihydroxytetrahydrofuran-2-yl)methyl 3,3-dimethylcyclobutane-1-carboxylate] | 4.71 |  | 3 min | 48 min |
